Patent US20100255020A1, “METHOD FOR INDUCING CYTOTOXIC T-CELLS, CYTOTOXIC T-CELL INDUCERS, AND PHARMACEUTICAL COMPOSITIONS AND VACCINES EMPLOYING THEM” (NEC CORPORATION, priority 2007, published 2010)
Where no end group is shown, it is not given here.

Legend:
[1] = tested on: prostate-specific antigen (PSA); experiment: Prostate tumor marker PSA during W10 peptide immunotherapy; format: in vivo, human
Description: After the gradual increase the dose was fixed to 3 mg of W10 peptide+Wc and immunotherapy was continued. […] The day when 1 mg of W10 peptide on its own was first administered was presented as day 0. Arrows with dotted line indicates the period when 3 mg of W10 without Wc was injected for safety test (W10). The period where Wc was further added to W10 is also indicated with arrows with solid line (W10+Wc). […] Therefore, osteolytic lesions were measured as the size of tumors. […] Around May 2008, PSA gradually started to increase again, and pain started in the right femur. From the end of July 2008, a taxotere+Predonin therapy was started. W10+Wc immunotherapy was continued along with chemotherapy.
Immunotherapy was started with 3 mg W10 peptide while monitoring safety, then dose escalation was put forward with W10 peptide 1 mg+Wc, followed by 3 mg of W10 peptide+Wc. Eventually, the dose was fixed at this level and weekly immunization was continued. […] The day the immunization was started with 3 mg of W10 without Wc was set as day 0. […] For about half a year, PSA was stable at less than 0.1 (FIG. 14 a). […] When the immunotherapy was resumed, PSA decreased. After this incident, PSA started to show gradual increase. […] The size of a pubic bone metastatic tumor has been maintained within SD for 37 weeks on the RECIST standard so far (FIG. 14 b). […]

[2] = tested on: W10-specific CD8 positive T cells; experiment: HLA-A24 tetramer flow cytometry of peptide-specific T cells; format: cell-based, human; conditions: patient KB07-006, PBMCs incubated with W10 peptide
Description: HLA-A24 tetramer was prepared by modifying a method by Altman et al. (Altman, J D, Moss, P A., Goulder, P J, Barouch, D H, McHeyzer-Williams, M G, Bell, J I, McMichael, A J, Davis, M M. Phenotypic analysis of antigen-specific T lymphocytes. Science […] 274, 94-96.)
HLA-A24 tetramer was prepared by expressing an HLA-A*2402 molecule in E. coli and W10 peptide was bound thereto. Furthermore, the C-terminus of the complex was modified by a site-specific biotinyltion. The product was then complexed with streptavidin (SA), giving rise to a molecular assembly consisting of 4 molecules of W10-bound HLA-A*2402 molecules and 1 SA.
Here in this assay, T cells specific for a HLA-A24-W10 complex was fluorescently labeled with […] (phycoerythrin) conjugated SA and antigen specific T cells were identified by flow cytometry.
cDNAs of HLA-A*2402, which is an H-chain constituting an HLA-A*2402 molecule, and human β2m 02-microglobulin) which is a light chain, were inserted into a pET-21d+vector (Novagen, Merck) under T7 promoter, respectively. The resultant vector was introdyced into E. coli BL21 (DE3) pLysS, and expression of the gene was induced using IPTG. […]
This HLA-A*2402-W10 monomer was associated with PE-labeled SA at a molecular ratio of 4:1, thus preparing HLA tetramer. […] T cells were incubated with HLA-A*2402-W10 or HLA-A*2402-HER2-63 on ice for 1 hour and then analyzed by flow cytometry.

[3] = human, in vivo
Description: Patients were monitored for adverse events after the peptide administration in accordance with evaluation criteria for an adverse event, CTCAE (Common Terminology Criteria for Adverse Events v3.0 by JCOG/JSCO-Oct. 27, 2004).
Adverse event was monitored up to 1 week after the last immunization.
Criteria for determining an adverse event is in accordance with CTCAE (Common Terminology Criteria for Adverse Events v3.0) by JCOG/JSCO-Oct. 27, 2004; when the grade was 2/3 the test therapy was suspended, and when the grade was 4 or greater, the test therapy was terminated regardless of causal relationship to the test therapy.

## ALLPAVPSL [W10]
[1]; patient KB07-003, prostate cancer, stable for about half a year
  PSA: less than 0.1
[1]; patient KB07-005, prostate cancer
  PSA after starting immunotherapy: around 0.04
[2]
  W10-specific CD8 positive T cells (HLA-A24-W10 tetramer staining): increased
[3]
  Adverse event due to peptide immunotherapy: no adverse event due to peptide immunotherapy was observed, except for an erythema and mild swelling at the site of immunization
  Creatinine (Cre) adverse event: Grade 2 increase of Cre
